From patent US12540943B2, “Use of Acyl coenzyme A: cholesterol acyltransferase-1 in diagnosis and treatment of liver cancer” (ACADEMY OF MILITARY MEDICAL SCIENCES, priority 2018, dated 2026) come the findings set out here.

One assay relates to Huh7. As to the kind of experiment: CCK8 experiment, proliferation of liver cancer cell line. Type of assay: cell-based, human. To be noted: for effect on proliferation: Huh7, CCK8 growth curves 0-72 hours, inhibitor 10 μM, 20 μM. The method, then:
(§1) 7. CCK8 experiment 1) On the first day, after routine trypsinization and counting of cells in a 60 mm culture dish, 5000 cells/well, inoculated 4 96-well plates. 2) On the second day, after about 24 hours of culture, the cell growth was in the logarithmic phase. […] Took a 96-well plate and added 10% CCK8, 100 μl/well, and measured the OD value at 0 hour at 450 nm wavelength after 1 hour. Cell-free well was a blank background. 3) On the third day, added 10% CCK8 to a 96-well plate, and measured the OD value at 24 hours at 450 nm wavelength after 1 hour. 4) On the fourth day, added 10% CCK8 to a 96-well plate, and measured the OD value at 48 hours at 450 nm wavelength after 1 hour. 5) On the fifth day, added 10% CCK8 to a 96-well plate, and measured the OD value at 72 hours at 450 nm wavelength after 1 hour. 6) Summarized the OD values at all time points and drew growth curves. 8. Cell migration experiment

In another assay the test system is MHCC97H. The assay is described as above. Type of assay: cell-based, human. Conditions: for effect on proliferation: CCK8 growth curves 0-72 hours, inhibitor 10 μM, 20 μM. On the procedure:
as §1

For assay [1], the system named is PLC/PRF/5. Described as above. The class given is cell-based, human. The method, then: (§2) 1) On the first day, after routine trypsinization and counting of cells in a 60 mm culture dish, 5000 cells/well, inoculated 4 96-well plates.
(§3) 2) On the second day, after about 24 hours of culture, the cell growth was in the logarithmic phase. Replaced with a new culture medium added with different concentrations of SOAT1 inhibitor, 100 μl/well, set 10 μM, 20 μM concentration group and control group respectively, the control group was 1% DMSO, each group had 3 repetitive wells. Took a 96-well plate and added 10% CCK8, 100 μl/well, and measured the OD value at 0 hour at 450 nm wavelength after 1 hour. Cell-free well was a blank background.
(§4) 3) On the third day, added 10% CCK8 to a 96-well plate, and measured the OD value at 24 hours at 450 nm wavelength after 1 hour.
(§5) 4) On the fourth day, added 10% CCK8 to a 96-well plate, and measured the OD value at 48 hours at 450 nm wavelength after 1 hour.
(§6) 5) On the fifth day, added 10% CCK8 to a 96-well plate, and measured the OD value at 72 hours at 450 nm wavelength after 1 hour.
(§7) 6) Summarized the OD values at all time points and drew growth curves. 8. Cell migration experiment

Assay [2] relates to HepG2. The description is as above. Type of assay: cell-based, human. Conditions: CCK8 growth curves 0-72 hours, inhibitor 10 μM, 20 μM or SOAT1 knockdown.
Assay [3] relates to Cervical cancer Hela cell line. The experiment in a line: Proliferation of other tumor cell lines. To be noted: FIG. 7. The class given is cell-based, human. On the procedure: as §2, §3, §4, §5, §6, §7
Assay [4] has as its system breast cancer MCF7 cell line. As to the kind of experiment: Proliferation of other tumor cell lines. Type of assay: cell-based, human. To be noted: MCF7, FIG. 7. The method, then: as §2, §3, §4, §5, §6, §7
Assay [5] deals with colon cancer HCT116 cell line. The experiment in a line: Proliferation of other tumor cell lines. The class given is cell-based, human. To be noted: HCT116, FIG. 7. On the procedure: as §2, §3, §4, §5, §6, §7
The test system of assay [6] is esophageal cancer ECA109 cell line. The experiment in a line: Proliferation of other tumor cell lines. The class given is cell-based, human. Conditions: ECA109, FIG. 7. The method, then:
as §2, §3, §4, §5, §6, §7

Assay [7] relates to leukemia Jurkat cell line. The experiment in a line: Proliferation of other tumor cell lines. Type of assay: cell-based, human. Conditions: FIG. 7. On the procedure: as §2, §3, §4, §5, §6, §7
Assay [8] deals with non-small cell lung cancer A549 cell line. The experiment in a line: Proliferation of other tumor cell lines. The class given is cell-based, human. To be noted: A549, FIG. 7. The method, then:
as §2, §3, §4, §5, §6, §7

Assay [9] deals with HepG2. As to the kind of experiment: Cell migration experiment (transwell). The class given is cell-based, human. Conditions: 20-24 hours, Avasimibe concentration 10 μM or SOAT1 knockdown. On the procedure:
as §7
(§8) (1) Starving cells: Withdrew the whole medium, washed twice with PBS, and replaced with serum-free DMEM.
(§9) (2) Added 2.5% serum of DMEM to the transwell lower chamber, 600 ul/well. Equilibrated overnight in a 37° C. incubator. Thetranswell chamber was 3422 of
(§10) (3) Added trypsin to digest the hungry cells from yesterday (about 30-50 seconds at room temperature), quickly and carefully sucked up the trypsin, added 1 ml of complete medium, and collected in a 1.5 ml centrifuge tube;
(§11) (4) Centrifuged at 800 rpm for 4 min; discarded the supernatant, added serum-free DMEM, and washed once; centrifuged again for 4 min at 800 rpm; discarded the supernatant and added 0.5% FBS in DMEM;
(§12) 100 μl/well was added to the tanswell upper chamber. The third day (20-24 hours later): (6) Discarded the culture medium; (7) Fixed with anhydrous methanol for 20 minutes; (8) Air-dried the film; (9) Pinched the cotton of the cotton swab to flat and rotated it to clean the upper chamber cells. Wrapped the tweezers with a cotton ball to gently wipe off the edge cells. (10) 0.5% crystal violet staining; (11) Rinsed slowly with clean water; (12) Observed and took pictures under an inverted microscope. 9. Western blot detection was done by conventional methods. 10. Statistical analysis

Assay [10] concerns PLC/PRF/5. As to the kind of experiment: Cell migration experiment (transwell). Type of assay: cell-based, human. Conditions: 20-24 hours, Avasimibe concentration 10 μM or SOAT1 knockdown. On the procedure: as §7, §8, §9, §10, §11, §12
Assay [11] concerns transcription factor SREBF2. As to the kind of experiment: Expression of cholesterol regulation and tumor invasion molecules (FIG. 8). Type of assay: cell-based.
Assay [12] has as its system extracellular uptake receptor (LDLR). The assay is described as above. Type of assay: cell-based.
The next assay relates to ITGAV. The description is as above. The class given is cell-based.
In another assay the test system is ITGB4. Described as above. Type of assay: cell-based.
The subject of the next assay is TGFBR1. Described as above. Type of assay: cell-based.

Consider `CSc1cc(C)nc(SC)c1NC(=O)CN1CCN(CCSc2nc3ccccc3[nH]2)CC1.Cl` [K604, 2-[4-[2-(benzimidazol-2-ylthio)ethyl]piperazin-lyl]-N-[2,4-bis(methylthio)-6-methyl-3-pyridyl]acetamide], for which the effect on proliferation entry in the assay on Huh7 and in the assay with MHCC97H was “significantly inhibited the proliferation” each time.

Take Avasimibe: the half-maximal inhibitory concentration (IC50) (commonly the concentration needed to halve the response being measured) with PLC/PRF/5 [1] (PLC/PRF/5, FIG. 5A) turned out to be 6.9 µM; in the assay with Huh7 (Huh7, FIG. 5A), 6.8 µM; in the assay with MHCC97H (FIG. 5A) it was 25.2 µM. The effect on proliferation result in the assay with PLC/PRF/5 [1] (PLC/PRF/5, CCK8 growth curves 0-72 hours, inhibitor 10 μM, 20 μM or SOAT1 knockdown) is “significantly inhibit the proliferation”; with HepG2 [2] it was “significantly inhibit the proliferation”; with Huh7 it was “significantly inhibit the proliferation”; in the assay on MHCC97H, “significantly inhibit the proliferation”; in [3] it was “significantly inhibited the proliferation”; in [4], “significantly inhibited the proliferation”. Moreover, the effect on proliferation entry in assay [5], in [6], in assay [7] and in [8] was “significantly inhibited the proliferation” throughout. In addition, the effect on migration result with HepG2 [9] and in the assay on PLC/PRF/5 [10] was “significantly reduce the migration” in each case. In addition, the “effect on expression of SREBF2” value in assay [11] is recorded as “significantly inhibit the expression”. The “effect on expression of LDLR” value in assay [12] is listed as “significantly inhibit the expression”. Also, the “effect on expression of ITGAV” value in the assay with ITGAV is on record as “significantly inhibit the expression”. For the same molecule, in the assay on ITGB4, the “effect on expression of ITGB4” value is listed as “significantly inhibit the expression”. Also, the “effect on expression of TGFBR1” value in the assay on TGFBR1 is given as “significantly inhibit the expression”.
